Read-outs that look alike come from different tables or passages of the source. Starred links: 1 amine or outer side, 2 acyl side, 3 side chain; linkers in the order of their positions; H or OH if unused. Non-standard residues stand in square brackets, D forms with d. Residues, ends and D or L forms follow the SMILES beside them. X2 = Nc1ncnc2c1ncn2[C@@H]1O[C@H](COP(=O)(O)OP(=O)(O)OC[C@H]2O[C@@H](n3nncc3C[C@H](N[*:1])C(=O)[*:2])[C@H](O)[C@@H]2O)[C@@H](O)[C@H]1O; X1 = Nc1ncnc2c1ncn2[C@@H]1O[C@H](COP(=O)(O)OP(=O)(O)OC[C@H]2O[C@H](n3nncc3C[C@H](N[*:1])C(=O)[*:2])[C@H](O)[C@@H]2O)[C@@H](O)[C@H]1O
What was measured:
ARH3 = ARH3 (Homo sapiens, UniProt Q9NX46); settings: 10 μM peptide, 0.5 μM hydrolase, 30 C, AMP-Glo luminescence, normalized to NudT16; for ARH3-mediated hydrolysis of the N-glycosidic linkage: 60 min, 50 mM TrisHCl pH 8, 200 mM NaCl, 10 mM MgCl2, 1 mM DTT, 0.2 μM human NUDT5
Method: (§1) Samples were extracted at different time points (2, 4, 8, 24, 48, and 169 h) and quenched with TFA prior to LC-MS injection. Peptide degradation was quantified by analyzing the UV-trace (260 nm) using Xcalibur software. […] Enzymatic turnover of the various peptides was assessed by monitoring AMP release directly (NudT16) or converting released ADPr via NudT5 to AMP. AMP was measured using the AMP-Glo assay (Promega). Samples are background corrected and normalized to NudT16 activity.

[1] = 0.1 M NaOH; for additional peaks of identical mass (isomerization) after NaOH treatment: LC-MS
Method: With all four ADPr-His* conjugates available, we next evaluated their stability under various conditions in a liquid-chromatography mass-spectrometry (LC-MS) based assay. The conditions surveyed (NH2OH, TFA, and NaOH) were selected because of their frequent occurrence in ADP-ribosylome-focused proteomics studies.
as §1
Figure S3. UV-trace (260 nm) of the obtained LC-MS spectra after treating β-configured 1,5-disubstituted triazole 24 with 0.1 M NaOH at various time points.
(1 picture or pasted object on this page, not shown here)
Figure S6. UV-trace (260 nm) of the obtained LC-MS spectra after treating α-configured 1,5-disubstituted triazole 29 with 0.1 M NaOH at various time points.

[2] = 0 h, quenched with TFA, LC-MS UV-trace 260 nm
[3] = 2 h, quenched with TFA, LC-MS UV-trace 260 nm
[4] = 4 h, quenched with TFA, LC-MS UV-trace 260 nm
[5] = 48 h, quenched with TFA, LC-MS UV-trace 260 nm
[6] = 169 h, quenched with TFA, LC-MS UV-trace 260 nm
[7] = 8 h, quenched with TFA, LC-MS UV-trace 260 nm
[8] = 24 h, quenched with TFA, LC-MS UV-trace 260 nm

Chain of ARH3 (Q9NX46 whole entry): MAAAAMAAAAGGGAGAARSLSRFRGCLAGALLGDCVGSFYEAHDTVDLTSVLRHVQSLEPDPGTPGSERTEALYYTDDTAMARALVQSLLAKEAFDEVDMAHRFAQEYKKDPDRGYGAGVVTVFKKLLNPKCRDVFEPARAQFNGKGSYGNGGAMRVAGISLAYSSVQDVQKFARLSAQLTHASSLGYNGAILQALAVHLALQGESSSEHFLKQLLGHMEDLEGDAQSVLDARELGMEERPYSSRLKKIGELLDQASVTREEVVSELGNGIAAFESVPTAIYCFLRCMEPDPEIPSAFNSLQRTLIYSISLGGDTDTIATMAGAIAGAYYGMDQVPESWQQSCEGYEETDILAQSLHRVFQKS

SMILES	ARH3-mediated hydrolysis of the N-glycosidic linkage (ARH3)	Accumulated isomers (%) [1, 2] [%]	Accumulated isomers (%) [1, 3] [%]	Intact peptide (%) [1, 3] [%]	Accumulated isomers (%) [1, 4] [%]	Accumulated isomers (%) [1, 5] [%]	Intact peptide (%) [1, 5] [%]	Accumulated isomers (%) [1, 6] [%]	Intact peptide (%) [1, 6] [%]	original peptide present after NaOH treatment ([1]; after 12 h, time course, quenched with TFA, LC-MS UV-trace 260 nm) [%]	conversion by ARH3 (ARH3; within the 1 h reaction, pH 8) [%]	Intact peptide (%) [1, 2] [%]	Intact peptide (%) [1, 4] [%]	Accumulated isomers (%) [1, 7] [%]	Intact peptide (%) [1, 7] [%]	Accumulated isomers (%) [1, 8] [%]	Intact peptide (%) [1, 8] [%]	additional peaks of identical mass (isomerization) after NaOH treatment ([1]; 24 h) [%]
CC(C)C[C@H](NC(=O)CNC(=O)[C@H](C)NC(=O)CNC(=O)[C@H](Cc1cnnn1[C@@H]1O[C@H](COP(=O)(O)OP(=O)(O)OC[C@H]2O[C@@H](n3cnc4c(N)ncnc43)[C@H](O)[C@@H]2O)[C@@H](O)[C@H]1O)NC(=O)[C@H](Cc1ccccc1)NC(=O)[C@@H](N)[C@@H](C)O)C(=O)N[C@H](C(=O)N[C@H](C(=O)N1CCC[C@H]1C(=O)N[C@H](C(=O)N[C@@H](CC(=O)O)C(=O)N[C@@H](CCCCN)C(=O)O)C(C)C)C(C)C)C(C)C [compound 24] (H-TF[X2]GAGLVVPVDK-OH)	unaffected	0	39	61	48	71	29	71	29	38								
CC(C)C[C@H](NC(=O)CNC(=O)[C@H](C)NC(=O)CNC(=O)[C@H](Cc1cnnn1[C@H]1O[C@H](COP(=O)(O)OP(=O)(O)OC[C@H]2O[C@@H](n3cnc4c(N)ncnc43)[C@H](O)[C@@H]2O)[C@@H](O)[C@H]1O)NC(=O)[C@H](Cc1ccccc1)NC(=O)[C@@H](N)[C@@H](C)O)C(=O)N[C@H](C(=O)N[C@H](C(=O)N1CCC[C@H]1C(=O)N[C@H](C(=O)N[C@@H](CC(=O)O)C(=O)N[C@@H](CCCCN)C(=O)O)C(C)C)C(C)C)C(C)C [compound 29] (H-TF[X1]GAGLVVPVDK-OH)	capable of hydrolyzing	0	26	74	40	62	38	62	38		~50	100	60	51	49	61	39	
CC(C)C[C@H](NC(=O)CNC(=O)[C@H](C)NC(=O)CNC(=O)[C@H](Cc1cn([C@H]2O[C@H](COP(=O)(O)OP(=O)(O)OC[C@H]3O[C@@H](n4cnc5c(N)ncnc54)[C@H](O)[C@@H]3O)[C@@H](O)[C@H]2O)nn1)NC(=O)[C@H](Cc1ccccc1)NC(=O)[C@@H](N)[C@@H](C)O)C(=O)N[C@H](C(=O)N[C@H](C(=O)N1CCC[C@H]1C(=O)N[C@H](C(=O)N[C@@H](CC(=O)O)C(=O)N[C@@H](CCCCN)C(=O)O)C(C)C)C(C)C)C(C)C [compound 28]	very weakly																	12
CC(C)C[C@H](NC(=O)CNC(=O)[C@H](C)NC(=O)CNC(=O)[C@H](Cc1cn([C@@H]2O[C@H](COP(=O)(O)OP(=O)(O)OC[C@H]3O[C@@H](n4cnc5c(N)ncnc54)[C@H](O)[C@@H]3O)[C@@H](O)[C@H]2O)nn1)NC(=O)[C@H](Cc1ccccc1)NC(=O)[C@@H](N)[C@@H](C)O)C(=O)N[C@H](C(=O)N[C@H](C(=O)N1CCC[C@H]1C(=O)N[C@H](C(=O)N[C@@H](CC(=O)O)C(=O)N[C@@H](CCCCN)C(=O)O)C(C)C)C(C)C)C(C)C [compound 23]	unaffected																	5
